Like-named read-outs stand apart in the source and are kept apart here. Ends that are not written are not given here.
What was measured:
[1] = tested on: Na+ dependent phosphate co-transport in primary human renal proximal tubule epithelial cells (RPTEC); test: 33PO4 uptake scintillation proximity assay (SPA) in RPTEC; assay type: cell-based
Procedure: (§1) Measurement of ^33PO4 uptake and ^14C-α-methyl D-glucose uptake. A novel technique, scintillation proximity assay (SPA), was used to measure ^33PO4 uptake in-vitro. Human renal proximal-tubule primary cells (RPTEC) were purchased from Clonetics-Biowhittaker (Walkersville, Md.) (cat. no. CC2553) and were cultured and subcultured using the manufacturers recommended protocols, methods, buffers and media (cat. nos. CC3190, CC5034). Also a human renal cell-line (Hu-CL8) was cultured as previously described (Rowe et al. Candidate 56 and 58 kDa protein(s) responsible for mediating the renal defects in oncogenic hypophosphatemic osteomalacia. Bone 18(2):159-169, 1996). For ^33PO4-uptake measurement cells were grown in REBM media supplemented with 5% fetal calf serum (REBM-FCS) to 80% confluence (Clonetics-Biowhitaker, Walkersville, Md.: cat. nos. CC2553, CC3190 and CC5034) and seeded into 96 well (3000 cells/well) cytostar-T scintillating-microplates (Amersham-Pharmacia Biotech, Piscataway, N.J.: cat. no. RPNQ 0162). Cells were then cultured in 200 μL of REBM-FCS media for 24 h. Media was then replaced with serum free media (REBM) and the cells incubated for a further 3-4 h with Hu-MEPE, PTH (1-34) or media control respectively in REBM media. The concentrations of PTH (1-34) and Hu-MEPE were […] and each experimental dose was repeated eight times for statistical analysis. Following incubation media was removed and replaced with either phosphate uptake buffer (PUB) consisting of 150 mM NaCl/1 mM Cacl2/1.8 mM MgSO4/10 mM HEPE pH 7.0/0.1 mM phosphate buffer pH 7.0 and 3 uCi mL^−1 33P as orthophosphoric acid (18 MBq/mL or 5775.7 Gbq/mg stock solution Perkin Elmer, Wellesley, Mass.: cat. no. NEZ080). In order to determine the Na-dependent phosphate co-transporter activity a separate set of control cells were incubated with the same buffer but with choline chloride (150 mM) substituted for NaCl (CHUB buffer). After 10 min at 37° C. the reaction was terminated by removing the PUB and CHUB buffers and replacing with STOP buffer (CHUB buffer without radioisotope). The cytostar scintillation plates were then directly assayed for counts (CPM) using a Hewlett-Packard (Palo Alto, Calif.) Multiplate Top-counter calibrated for ^33P SPA assay. Due to the unique design of the 96 well cytostar-plate radioactive decay in solution is not detected by the counter. In contrast, radioisotope attached to or taken into the cells initiates release of plastic-scintillant photons that are detected by the top-counter photo-multiplier tube. Thus, no washes are required and direct CPM can be counted in living cells. Following CPM determination the buffers were removed from the living cells and fresh media supplemented with cell-titre-96 (Promega-Biotech, Madison, Wis.: cat. no. G5421) cell-number detection media. Cells were then further incubated at 37° C. for 4 h. Conversion of a tetrazolium salt to a colored formazan product by living cells was then measured at 490 nm using a 96 well multi-well spectrophotometer with KC-4 software (absorbance at 490 nm is directly proportional to the number of living cells). Na-dependent ^33P uptake was then calculated by subtracting background counts and the choline chloride non Na-dependent ^33P uptake and results expressed as ^33PO4 femtomoles/10^4-cells/6 min. […]

[2] = tested on: Na+ dependent phosphate co-transport in human renal proximal tubule cell-line (Hu-CL8); test: 33PO4 uptake scintillation proximity assay (SPA) in Hu-CL8; assay type: cell-based; conditions: Hu-CL8
Procedure: as §1, with “After 10 min at 37° C. the reaction was terminated by removing the PUB and CHUB buffers and replacing with STOP buffer (CHUB buffer without radioisotope). The cytostar scintillation plates were then directly assayed for counts (CPM) using a Hewlett-Packard (Palo Alto, Calif.) Multiplate Top-counter calibrated for ^33P SPA assay.” left out, “Following CPM determination the buffers were removed from the living cells and fresh media supplemented with cell-titre-96 (Promega-Biotech, Madison, Wis.: cat. no. G5421) cell-number detection media. Cells were then further incubated at 37° C. for 4 h.” left out

Male ICR-Swiss mice = test: Intraperitoneal administration of Hu-MEPE and PTH (1-34) into mice, serum and urine assays; assay type: in vivo
Procedure: Intraperitoneal administration of Hu-MEPE and PTH (1-34) into mice. Male ICR-Swiss mice were used as recipients for intraperitoneal administration (100 μl) of 0.1% phosphate-buffered saline/0.1% bovine serum albumin (vehicle) and experimental conditions (Hu-MEPE and PTH 1-34) dissolved in 100 μL of vehicle. Two separate (repeat) experiments were conducted consisting of four groups with 6 and 7 animals per group. The control group was administered with 100 μL of vehicle (Group-1). Group-2 consisted of animals administered with 0.8 μg/injection of parathyroid hormone (PTH 1-34). Group 3 were injected with 0.4 μg/injection of Hu-MEPE and Group-4 with 4 μg/injection of Hu-MEPE. On day one, three bolus injections were given at 0, 3 h, and 6 h. Serum samples were then collected via retro-orbital bleed one hour after the 6 h bolus administration. The next day or 30 hours after the first bolus a fourth bolus (same amount) was given and after 1 h the animals were sacrificed and serum prepared after cardiac exsanguination. The total amounts of PTH and MEPE administered over the 30 h were 80 μg/kg/30 h PTH 1-34, 40 μg/kg/30 h Hu-MEPE (MEPE-40) and 400 μg/kg/30 h Hu-MEPE (MEPE-400). Each group was placed in a separate metabolic cage and urine was collected for the 6-hour period. After the first 6-hour urine collection mice were replaced in thoroughly cleaned metabolic cages for the remaining 24 hours. The second 24-hour urine was collected immediately after the animals were sacrificed. The urine volumes for the second and first collections were measured. Collecting urine samples from large numbers of small mice over the time frame of the experiment was not feasible. Therefore, urine samples from each group (n=7) were pooled and volumes measured via a specially designed collecting duct in the metabolic cage. To ensure reproducibility the experiment was repeated twice (the same changes occurred). To calculate the fractional excretion of phosphate (FEP) the following equation was used: 100−(100×(1−(A/B))) where A=(urine phosphorus in mg/dL)×(serum creatinine in mg/dL) and B=(urine creatinine in mg/dL)×(serum phosphorus in mg/dL). To calculate renal phosphorus clearance (RPC) in mL/minute following computation was used: (urine phosphorus in mg/dL)×(urinary volume in mL)/((serum phosphorus in mg/dL)×(time of collection in minutes)). The phosphate excretion index (PEI) was calculated using the same method described by Shimada et al. (Cloning and characterization of FGF23 as a causative factor of tumor-induced osteomalacia, Proc Natl Acad Sci USA 98:6500-6505, 2001) using the following formula: ((urinary concentration of phosphorus in mg/dL)/(serum concentration of phosphorus in mg/dL))/(total urinary creatinine in mg).
Serum and urine assays. Serum and urine assays for phosphate, calcium, chloride, potassium, creatinine, glucose and alkaline phosphatase were accomplished using 96 well format KC4-spectrophotometer multiplate kinetic/end-point analyses using routine methods and diagnostic-kits Sigma-Diagnostics). Serum 1,25-dihydroxy vitamin-D3 levels were estimated using the method of Reinhardt, et al. (A microassay for 1,25-dihydroxyvitamin D not requiring high performance liquid chromatography: application to clinical studies, J Clin Endocrinol Metab 58:91-98, 1984). Analysis of data for fractional excretion of phosphate (FEP) was carried out following the same method described previously by Shimada et al. (Mutant FGF-23 responsible for autosomal dominant hypophosphatemic rickets is resistant to proteolytic cleavage and causes hypophosphatemia in vivo, Endocrinology 143:3179-82, 2002) for FGF23 bolus administration studies and by Nesbitt et al. (Crosstransplantation of kidneys in normal and Hyp mice: Evidence that the Hyp mouse phenotype is unrelated to an intrinsic renal defect, J Clin Invest 89:1453-59, 1992) for renal cross-transplantation experiments in Hyp mice.
Statistical methods. […]

[3] = target: rabbit polyclonal antibodies raised against ASARM-peptide (SEQ ID NO. 5); test: competitive chemiluminescent ELISA: anti-ASARM polyclonal on protein-G plates, 0.5 ng/mL biotinylated ASARM-peptide as competitor, one site binding hyperbola of % quenching
[4] = target: rabbit polyclonal antibodies raised against ASARM-peptide (SEQ ID NO. 5); test: competitive chemiluminescent ELISA: anti-ASARM polyclonal on protein-G plates, 0.5 ng/mL biotinylated ASARM-peptide as competitor

Molecule	inhibition of Na+ dependent phosphate co-transport [1]	inhibition of Na+ dependent phosphate co-transport ([1]; listed as PTH)	inhibition of Na+ dependent phosphate co-transport [2]	fractional excretion of phosphate (FEP) (Male ICR-Swiss mice; 7 h, PTH 80 ug/kg/30 h, vehicle 7.8%)	urine phosphate (Male ICR-Swiss mice; 7 h, PTH 80 ug/kg/30 h i.p., vehicle 31.8)	fractional excretion of phosphate (FEP) (Male ICR-Swiss mice; 31 h, PTH 80 ug/kg/30 h, vehicle 28.7%)	serum alkaline phosphatase (Male ICR-Swiss mice; 31 h, PTH 80 ug/kg/30 h, vehicle 65.06)	serum 1,25-dihydroxy vitamin-D3 (Male ICR-Swiss mice; 31 h, PTH 1-34 80 ug/kg/30 h, pooled, vehicle 25.2)	serum phosphate (Male ICR-Swiss mice; 31 hours, PTH 80 ug/kg/30 h i.p., vehicle 11.94)	urine phosphate (Male ICR-Swiss mice; 31 h second urine, PTH 80 ug/kg/30 h, vehicle 175.9)	serum phosphate vs vehicle (Male ICR-Swiss mice; after 7 hours, i.p., PTH and MEPE animals)	serum calcium vs vehicle (Male ICR-Swiss mice; after 7 hours, PTH 80 ug/kg/30 h, low Hu-MEPE dose)	urine calcium vs Hu-MEPE and vehicle (Male ICR-Swiss mice; after 31 hours, PTH)	Kd [3]	Qmax (quench maximum) [4]
PTH (1-34): parathyroid hormone (PTH 1-34), used as a positive control (SVSEIQLMHNLGKHLNSMERVEWLRKKLQDVHNF; Parathyroid hormone; UniProt P01270 32-65, looked up, fragment) [reference compound]	Dose dependent inhibition	dose-dependent inhibition	Dose dependent inhibition	27.4%	61.6 mg/dL	53.3%	46.3 U/L	61.2 pg/mL	8.32 mg/dL	238.3 mg/dL	no significant differences	significantly elevated	significantly hypocalciuric		
RDDSSESSDSGSSSESDGD (not fully specified)														7.5 ng/mL	98.7%

— patent publication US20070099822A1, “Regulation of tissue mineralization and phosphate metabolism by asarm peptides” (priority 2003, published 2007)
